Experiments:
[1] = system: Eca-109/VCR; assay: Induction of apoptosis in human Eca-109/VCR cells assessed as viable cells at 5 uM incubated for 60 hrs by Annexin V-FITC/PI staining based flow cytometric analysis (reference value: 97.4%); type: functional; details: read-out: Activity
[2] = system: Eca-109/VCR; assay: Induction of apoptosis in human Eca-109/VCR cells assessed as late apoptotic cells at 2.5 uM incubated for 60 hrs in presence of vincristine by Annexin V-FITC/PI staining based flow cytometric analysis (reference value: 0.56%); type: functional
[3] = system: Eca-109/VCR; assay: Induction of apoptosis in human Eca-109/VCR cells assessed as necrotic cells at 5 uM incubated for 60 hrs in presence of vincristine by Annexin V-FITC/PI staining based flow cytometric analysis (reference value: 0.10%); type: functional
[4] = system: Eca-109/VCR; assay: Induction of apoptosis in human Eca-109/VCR cells assessed as early apoptotic cells at 5 uM incubated for 60 hrs by Annexin V-FITC/PI staining based flow cytometric analysis (reference value: 1.66%); type: functional
[5] = system: Eca-109/VCR; assay: Induction of apoptosis in human Eca-109/VCR cells assessed as necrotic cells at 2.5 uM incubated for 60 hrs by Annexin V-FITC/PI staining based flow cytometric analysis (reference value: 0.22%); type: functional
[6] = system: Eca-109/VCR; assay: Cytotoxicity against human Eca-109/VCR cells assessed as reduction in cell viability at 5.0 uM incubated for 48 hrs by CCK-8 assay relative to control; type: functional
[7] = system: Eca-109/VCR; assay: Induction of apoptosis in human Eca-109/VCR cells assessed as late apoptotic cells at 2.5 uM incubated for 60 hrs by Annexin V-FITC/PI staining based flow cytometric analysis (reference value: 0.70%); type: functional
[8] = system: Eca-109/VCR; assay: Induction of apoptosis in human Eca-109/VCR cells assessed as necrotic cells at 5 uM incubated for 60 hrs by Annexin V-FITC/PI staining based flow cytometric analysis (reference value: 0.22%); type: functional
[9] = system: Eca-109/VCR; assay: Induction of apoptosis in human Eca-109/VCR cells assessed as necrotic cells at 2.5 uM incubated for 60 hrs in presence of vincristine by Annexin V-FITC/PI staining based flow cytometric analysis (reference value: 0.10%); type: functional
[10] = system: Eca-109/VCR; assay: Induction of apoptosis in human Eca-109/VCR cells assessed as viable cells at 5 uM incubated for 60 hrs in presence of vincristine by Annexin V-FITC/PI staining based flow cytometric analysis (reference value: 97.3%); type: functional; details: read-out: Activity
[11] = system: Eca-109/VCR; assay: Induction of apoptosis in human Eca-109/VCR cells assessed as late apoptotic cells at 5 uM incubated for 60 hrs by Annexin V-FITC/PI staining based flow cytometric analysis (reference value: 0.70%); type: functional
[12] = system: Eca-109/VCR; assay: Induction of apoptosis in human Eca-109/VCR cells assessed as viable cells at 2.5 uM incubated for 60 hrs in presence of vincristine by Annexin V-FITC/PI staining based flow cytometric analysis (reference value: 97.3%); type: functional; details: read-out: Activity
[13] = system: Eca-109/VCR; assay: Induction of apoptosis in human Eca-109/VCR cells assessed as late apoptotic cells at 5 uM incubated for 60 hrs in presence of vincristine by Annexin V-FITC/PI staining based flow cytometric analysis (reference value: 0.56%); type: functional
[14] = system: Eca-109/VCR; assay: Induction of apoptosis in human Eca-109/VCR cells assessed as early apoptotic cells at 2.5 uM incubated for 60 hrs by Annexin V-FITC/PI staining based flow cytometric analysis (reference value: 1.66%); type: functional
[15] = Reversal fold, ratio of vincristine IC50 to vincristine IC50 in presence of test compound for reversal of drug resistance in human Eca-109/VCR cells at 5 uM incubated for 48 hrs by CCK-8 assay; type: functional
[16] = system: ECa-109 cell line; assay: Cytotoxicity against human Eca-109 cells incubated for 48 hrs by CCK-8 assay; type: functional, cell-based; details: ECa-109, 48 h

COc1ccc(CCN(C)CCCC(C#N)(c2ccc(OC)c(OC)c2)C(C)C)cc1OC (stereo not given) [VERAPAMIL]
viability at 5 µM [1]: 96.2% | Activity [2]: 0.85% | Activity [3]: 0.34% | Activity [4]: 1.12% | Activity [5]: 0.2% | Cell viability (% of control) [6]: 98.9% | Activity [7]: 0.55% | Activity [8]: 0.13% | Activity [9]: 0.17% | viability at 5 µM [10]: 75.4% | Activity [11]: 0.72% | viability at 2.5 µM [12]: 96% | Activity [13]: 5.95% | Activity [14]: 1.19%

CCCCCCCCOc1ccc(CC2c3cc(OC)c(OC)cc3CCN2C)cc1OC (stereo not given)
Cell viability (% of control) [6]: 94.7% | Ratio IC50 [15]: 82.6

COc1cc2c(cc1OC)C(Cc1ccc(OC)c(OCC3CC3)c1)N(C)CC2 (stereo not given)
Cell viability (% of control) [6]: 105.6% | Ratio IC50 [15]: 6.3

COc1cc2c(cc1OC)C(Cc1ccc(OCC3CC3)c(OC)c1)N(C)CC2 (stereo not given)
Cell viability (% of control) [6]: 104.2% | Ratio IC50 [15]: 1.5

C=CCCCCOc1ccc(CC2c3cc(OC)c(OC)cc3CCN2C)cc1OC (stereo not given)
Cell viability (% of control) [6]: 103.4% | Ratio IC50 [15]: 1.9

COc1cc2c(cc1OC)C(Cc1ccc(OC)c(OS(=O)(=O)c3ccccc3[N+](=O)[O-])c1)N(C)CC2 (stereo not given)
Cell viability (% of control) [6]: 102% | Ratio IC50 [15]: 253.3

COc1cc2c(cc1OC)C(Cc1ccc(OC)c(OC(=O)c3ccc4ccccc4c3)c1)N(C)CC2 (stereo not given)
Cell viability (% of control) [6]: 101.1% | Ratio IC50 [15]: 107.9

COc1cc2c(cc1OC)C(Cc1ccc(OS(=O)(=O)c3ccc(C#N)cc3)c(OC)c1)N(C)CC2 (stereo not given)
Cell viability (% of control) [6]: 99.9% | Ratio IC50 [15]: 168.5

COc1cc2c(cc1OC)C(Cc1ccc(OC)c(OCC3CCC3)c1)N(C)CC2 (stereo not given)
Cell viability (% of control) [6]: 102.7% | Ratio IC50 [15]: 122.6

COc1cc2c(cc1OC)C(Cc1ccc(OC)c(OCCc3ccccc3)c1)N(C)CC2 (stereo not given)
Cell viability (% of control) [6]: 102.4% | Ratio IC50 [15]: 12.3

COc1cc2c(cc1OC)C(Cc1ccc(OS(=O)(=O)c3ccc([N+](=O)[O-])cc3)c(OC)c1)N(C)CC2 (stereo not given)
Cell viability (% of control) [6]: 105.6% | Ratio IC50 [15]: 172.2

COc1cc2c(cc1OC)C(Cc1ccc(OC)c(OS(=O)(=O)c3ccc([N+](=O)[O-])cc3)c1)N(C)CC2 (stereo not given)
Cell viability (% of control) [6]: 101.5% | Ratio IC50 [15]: 141.5

COc1cc2c(cc1OC)C(Cc1ccc(OS(=O)(=O)c3ccccc3F)c(OC)c1)N(C)CC2 (stereo not given)
Cell viability (% of control) [6]: 98.2% | Ratio IC50 [15]: 274.3

COc1cc2c(cc1OC)C(Cc1ccc(OC)c(OCCCc3ccccc3)c1)N(C)CC2 (stereo not given)
Cell viability (% of control) [6]: 96.9% | Ratio IC50 [15]: 124.1

COc1cc2c(cc1OC)C(Cc1ccc(OCCc3ccccc3)c(OC)c1)N(C)CC2 (stereo not given)
Cell viability (% of control) [6]: 104.2% | Ratio IC50 [15]: 1.8

CCOCCOCCOc1ccc(CC2c3cc(OC)c(OC)cc3CCN2C)cc1OC (stereo not given)
Cell viability (% of control) [6]: 103.6% | Ratio IC50 [15]: 8.5

COc1cc2c(cc1OC)C(Cc1ccc(OC)c(OCc3ccc(Br)cc3)c1)N(C)CC2 (stereo not given)
Cell viability (% of control) [6]: 97.8% | Ratio IC50 [15]: 158

COc1cccc2c1C(=O)c1c(O)c3c(c(O)c1C2=O)C[C@@](O)(C(=O)CO)C[C@@H]3O[C@H]1C[C@H](N)[C@H](O)[C@H](C)O1 [DOXORUBICIN]
IC50 [16]: 2070 nM

COc1cc2c(cc1OC)C(Cc1ccc(OCCCc3ccccc3)c(OC)c1)N(C)CC2 (stereo not given)
Cell viability (% of control) [6]: 103.3% | Ratio IC50 [15]: 162.4

CCCCCCCCOc1cc(CC2c3cc(OC)c(OC)cc3CCN2C)ccc1OC (stereo not given)
Cell viability (% of control) [6]: 95.3% | Ratio IC50 [15]: 159

COc1cc2c(cc1OC)C(Cc1ccc(OS(=O)(=O)Cc3ccccc3)c(OC)c1)N(C)CC2 (stereo not given)
Cell viability (% of control) [6]: 102.6% | Ratio IC50 [15]: 171.6

COc1cc2c(cc1OC)C(Cc1ccc(OCC3CCCCC3)c(OC)c1)N(C)CC2 (stereo not given)
Cell viability (% of control) [6]: 87.7% | Ratio IC50 [15]: 280
